Values joined by “and” are separate entries in the source; they are usually repeats but may differ in a detail not shown here. Identical values can stand only once.
Tested on: 171881-019-R-J1-PDC multicell spheroid viability
Experiment: Anticancer human tumor 171881-019-R-J1-PDC patient-derived invasive breast carcinoma cell line growth inhibition [IpAb]
Settings: for viability, T/C: stronger effect = lower value
Outline: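 Spheroids of 60% malignant cells, 25% HUVEC and 15% MSC were exposed to targeted agents combined with ipatasertib or abemaciclib. Doses started at or near clinical Cmax (10 microM when unknown) and fell in half-log steps.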

[1] = curve of first compound, second compound 0.01 µM
[2] = curve of first compound, second compound 0.0316 µM
[3] = curve of first compound, second compound 0.1 µM
[4] = curve of first compound, second compound 0.316 µM
[5] = curve of first compound, second compound 1 µM
[6] = second compound 0.01 µM, first compound 0.0316 µM
[7] = second compound 0.01 µM, first compound 0.1 µM
[8] = second compound 0.01 µM, first compound 0.316 µM
[9] = second compound 0.01 µM, first compound 1 µM
[10] = second compound 0.01 µM, first compound 3.16 µM
[11] = second compound 0.01 µM, first compound 10 µM
[12] = second compound 0.0316 µM, first compound 0.0316 µM
[13] = second compound 0.0316 µM, first compound 0.1 µM
[14] = second compound 0.0316 µM, first compound 0.316 µM
[15] = second compound 0.0316 µM, first compound 1 µM
[16] = second compound 0.0316 µM, first compound 3.16 µM
[17] = second compound 0.0316 µM, first compound 10 µM
[18] = second compound 0.1 µM, first compound 0.0316 µM
[19] = second compound 0.1 µM, first compound 0.1 µM
[20] = second compound 0.1 µM, first compound 0.316 µM
[21] = second compound 0.1 µM, first compound 1 µM
[22] = second compound 0.1 µM, first compound 3.16 µM
[23] = second compound 0.1 µM, first compound 10 µM
[24] = second compound 0.316 µM, first compound 0.0316 µM
[25] = second compound 0.316 µM, first compound 0.1 µM
[26] = second compound 0.316 µM, first compound 0.316 µM
[27] = second compound 0.316 µM, first compound 1 µM
[28] = second compound 0.316 µM, first compound 3.16 µM
[29] = second compound 0.316 µM, first compound 10 µM
[30] = second compound 1 µM, first compound 0.0316 µM
[31] = second compound 1 µM, first compound 0.1 µM
[32] = second compound 1 µM, first compound 0.316 µM
[33] = second compound 1 µM, first compound 1 µM
[34] = second compound 1 µM, first compound 3.16 µM
[35] = second compound 1 µM, first compound 10 µM
[36] = second compound 0.1 µM, first compound 0.000316 µM
[37] = second compound 0.1 µM, first compound 0.001 µM
[38] = second compound 0.1 µM, first compound 0.00316 µM
[39] = second compound 0.1 µM, first compound 0.01 µM
[40] = second compound 0.316 µM, first compound 0.000316 µM
[41] = second compound 0.316 µM, first compound 0.001 µM
[42] = second compound 0.316 µM, first compound 0.00316 µM
[43] = second compound 0.316 µM, first compound 0.01 µM
[44] = second compound 1 µM, first compound 0.000316 µM
[45] = second compound 1 µM, first compound 0.001 µM
[46] = second compound 1 µM, first compound 0.00316 µM
[47] = second compound 1 µM, first compound 0.01 µM
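Also: spheroids exposed to the agents for seven days before readout.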

## Cn1ncc(Cl)c1-c1cc(C(=O)NC(CN)Cc2cccc(F)c2)sc1Cl (stereo unspecified) + CCN1CCN(Cc2ccc(Nc3ncc(F)c(-c4cc(F)c5nc(C)n(C(C)C)c5c4)n3)nc2)CC1
[1]
  IC50: 183 nM
[2]
  IC50: 176 nM
[3]
  IC50: 167 nM
[4]
  IC50: 207 nM
[5]
  IC50: 345 nM
[6]
  viability, T/C: 116%
[7]
  viability, T/C: 69.1%
[8]
  viability, T/C: 31.4%
[9]
  viability, T/C: 16.8%
[10]
  viability, T/C: 3.11%
[11]
  viability, T/C: 0.48%
[12]
  viability, T/C: 116%
[13]
  viability, T/C: 67.4%
[14]
  viability, T/C: 31.1%
[15]
  viability, T/C: 15.9%
[16]
  viability, T/C: 4.15%
[17]
  viability, T/C: 0.13%
[18]
  viability, T/C: 103%
[19]
  viability, T/C: 66.2%
[20]
  viability, T/C: 28%
[21]
  viability, T/C: 17.3%
[22]
  viability, T/C: 3.84%
[23]
  viability, T/C: 0.58%
[24]
  viability, T/C: 107%
[25]
  viability, T/C: 73.2%
[26]
  viability, T/C: 34%
[27]
  viability, T/C: 19.4%
[28]
  viability, T/C: 4.04%
[29]
  viability, T/C: 0.34%
[30]
  viability, T/C: 122%
[31]
  viability, T/C: 87.9%
[32]
  viability, T/C: 50.1%
[33]
  viability, T/C: 27.3%
[34]
  viability, T/C: 8.61%
[35]
  viability, T/C: 0.61%

## Cn1nccc1Nc1nccc(-c2ccn(C(CO)c3ccc(Cl)c(F)c3)c(=O)c2)n1 (stereo unspecified) + CCN1CCN(Cc2ccc(Nc3ncc(F)c(-c4cc(F)c5nc(C)n(C(C)C)c5c4)n3)nc2)CC1
[1]
  IC50: 772 nM
[2]
  IC50: 810 nM
[3]
  IC50: 929 nM
[4]
  IC50: 1140 nM
[5]
  IC50: 2970 nM
[6]
  viability, T/C: 117%
[7]
  viability, T/C: 112%
[8]
  viability, T/C: 79.5%
[9]
  viability, T/C: 41.6%
[10]
  viability, T/C: 24.5%
[11]
  viability, T/C: 18.5%
[12]
  viability, T/C: 132%
[13]
  viability, T/C: 122%
[14]
  viability, T/C: 80.6%
[15]
  viability, T/C: 43.2%
[16]
  viability, T/C: 29.2%
[17]
  viability, T/C: 19.7%
[18]
  viability, T/C: 138%
[19]
  viability, T/C: 113%
[20]
  viability, T/C: 78.5%
[21]
  viability, T/C: 47.4%
[22]
  viability, T/C: 31.2%
[23]
  viability, T/C: 20.9%
[24]
  viability, T/C: 144%
[25]
  viability, T/C: 122%
[26]
  viability, T/C: 79.3%
[27]
  viability, T/C: 52.2%
[28]
  viability, T/C: 38.8%
[29]
  viability, T/C: 26.5%
[30]
  viability, T/C: 161%
[31]
  viability, T/C: 129%
[32]
  viability, T/C: 87.5%
[33]
  viability, T/C: 61.5%
[34]
  viability, T/C: 46.5%
[35]
  viability, T/C: 32.7%

## CC(C)NCC(C(=O)N1CCN(c2ncnc3c2C(C)CC3O)CC1)c1ccc(Cl)cc1 (stereo unspecified)
Compound 1 µM
  viability, T/C: 27.9% [middle of 13 runs]
Compound 3.16 µM
  viability, T/C: 11.2% [middle of 13 runs]
Compound 10 µM
  viability, T/C: 6.7% [middle of 12 runs]
Compound alone, run of 05/18/2021
  IC50: 618 nM [middle of 13 runs]

## CC(C)n1nc(-c2ccc3oc(N)nc3c2)c2c(N)ncnc21 + CCN1CCN(Cc2ccc(Nc3ncc(F)c(-c4cc(F)c5nc(C)n(C(C)C)c5c4)n3)nc2)CC1
[1]
  IC50: 5.63 nM
[2]
  IC50: 5.98 nM
[3]
  IC50: 5.6 nM
[4]
  IC50: 6.25 nM
[5]
  IC50: 9.54 nM
Second compound 0.01 µM, first compound 0.000316 µM
  viability, T/C: 99%
Second compound 0.01 µM, first compound 0.001 µM
  viability, T/C: 102%
Second compound 0.01 µM, first compound 0.00316 µM
  viability, T/C: 73.9%
Second compound 0.01 µM, first compound 0.01 µM
  viability, T/C: 25.7%
[6]
  viability, T/C: 4.34%
[7]
  viability, T/C: 2.21%
Second compound 0.0316 µM, first compound 0.000316 µM
  viability, T/C: 97.9%
Second compound 0.0316 µM, first compound 0.001 µM
  viability, T/C: 112%
Second compound 0.0316 µM, first compound 0.00316 µM
  viability, T/C: 80.5%
Second compound 0.0316 µM, first compound 0.01 µM
  viability, T/C: 24.8%
[12]
  viability, T/C: 5.1%
[13]
  viability, T/C: 2.53%
[36]
  viability, T/C: 114%
[37]
  viability, T/C: 103%
[38]
  viability, T/C: 75.8%
[39]
  viability, T/C: 24.3%
[18]
  viability, T/C: 5.52%
[19]
  viability, T/C: 2.76%
[40]
  viability, T/C: 131%
[41]
  viability, T/C: 106%
[42]
  viability, T/C: 81.4%
[43]
  viability, T/C: 28.5%
[24]
  viability, T/C: 9.75%
[25]
  viability, T/C: 3.47%
[44]
  viability, T/C: 140%
[45]
  viability, T/C: 125%
[46]
  viability, T/C: 89.8%
[47]
  viability, T/C: 48.6%
[30]
  viability, T/C: 21.4%
[31]
  viability, T/C: 10.4%

## C=CC(=O)N1CCN(c2nc(=O)n(-c3c(C)ccnc3C(C)C)c3nc(-c4c(O)cccc4F)c(F)cc23)C(C)C1 (stereo unspecified) + CCN1CCN(Cc2ccc(Nc3ncc(F)c(-c4cc(F)c5nc(C)n(C(C)C)c5c4)n3)nc2)CC1
[1]
  IC50: 8350 nM
[2]
  IC50: 9500 nM
[3]
  IC50: > 10000 nM
[4]
  IC50: > 10000 nM
[5]
  IC50: > 10000 nM
[6]
  viability, T/C: 103%
[7]
  viability, T/C: 90.1%
[8]
  viability, T/C: 89.5%
[9]
  viability, T/C: 94.8%
[10]
  viability, T/C: 97.5%
[11]
  viability, T/C: 41.6%
[12]
  viability, T/C: 99.1%
[13]
  viability, T/C: 94.1%
[14]
  viability, T/C: 104%
[15]
  viability, T/C: 90.6%
[16]
  viability, T/C: 91.5%
[17]
  viability, T/C: 47.7%
[18]
  viability, T/C: 117%
[19]
  viability, T/C: 128%
[20]
  viability, T/C: 114%
[21]
  viability, T/C: 108%
[22]
  viability, T/C: 105%
[23]
  viability, T/C: 49.7%
[24]
  viability, T/C: 136%
[25]
  viability, T/C: 132%
[26]
  viability, T/C: 132%
[27]
  viability, T/C: 131%
[28]
  viability, T/C: 114%
[29]
  viability, T/C: 59.7%
[30]
  viability, T/C: 148%
[31]
  viability, T/C: 148%
[32]
  viability, T/C: 149%
[33]
  viability, T/C: 143%
[34]
  viability, T/C: 127%
[35]
  viability, T/C: 76.6%

## Cn1ncnc1[C@H]1c2n[nH]c(=O)c3cc(F)cc(c23)N[C@@H]1c1ccc(F)cc1 + CC(C)NCC(C(=O)N1CCN(c2ncnc3c2C(C)CC3O)CC1)c1ccc(Cl)cc1
[3]
  IC50: > 100 nM
[4]
  IC50: > 100 nM
[5]
  IC50: < 0.316 nM
Curve of first compound, second compound 3.16 µM
  IC50: < 0.316 nM
Curve of first compound, second compound 10 µM
  IC50: < 0.316 nM
[36]
  viability, T/C: 102%
[37]
  viability, T/C: 114%
[38]
  viability, T/C: 121%
[39]
  viability, T/C: 108%
[18]
  viability, T/C: 108%
[19]
  viability, T/C: 101%
[40]
  viability, T/C: 74.8%
[41]
  viability, T/C: 75.1%
[42]
  viability, T/C: 75.6%
[43]
  viability, T/C: 72.6%
[24]
  viability, T/C: 65.8%
[25]
  viability, T/C: 60.8%
[44]
  viability, T/C: 27.4%
[45]
  viability, T/C: 24.4%
[46]
  viability, T/C: 20.7%
[47]
  viability, T/C: 24.6%
[30]
  viability, T/C: 20.3%
[31]
  viability, T/C: 17.1%
Second compound 3.16 µM, first compound 0.000316 µM
  viability, T/C: 10.7%
Second compound 3.16 µM, first compound 0.001 µM
  viability, T/C: 12.5%
Second compound 3.16 µM, first compound 0.00316 µM
  viability, T/C: 8.98%
Second compound 3.16 µM, first compound 0.01 µM
  viability, T/C: 10%
Second compound 3.16 µM, first compound 0.0316 µM
  viability, T/C: 8.89%
Second compound 3.16 µM, first compound 0.1 µM
  viability, T/C: 7.64%
Second compound 10 µM, first compound 0.000316 µM
  viability, T/C: 5.76%
Second compound 10 µM, first compound 0.001 µM
  viability, T/C: 5.36%
Second compound 10 µM, first compound 0.00316 µM
  viability, T/C: 5.17%
Second compound 10 µM, first compound 0.01 µM
  viability, T/C: 5.3%
Second compound 10 µM, first compound 0.0316 µM
  viability, T/C: 4.77%
Second compound 10 µM, first compound 0.1 µM
  viability, T/C: 4.29%

## CC(C)n1nc(-c2ccc3oc(N)nc3c2)c2c(N)ncnc21
Compound 0.000316 µM
  viability, T/C: 109% and 103%
Compound 0.001 µM
  viability, T/C: 114% and 106%
Compound 0.00316 µM
  viability, T/C: 82.1% and 64%
Compound 0.01 µM
  viability, T/C: 28.1% and 18.6%
Compound 0.0316 µM
  viability, T/C: 4.54% and 3.87%
Compound 0.1 µM
  viability, T/C: 2.72% and 2.73%
Curve of compound
  IC50: 6.27 nM and 4.58 nM
